pIC50: −log10 of the molar value.
Experiments:
HT-29 colon cancer cells = conditions: cited from earlier work
[1] = test system: HeLa cervical cancer cells; conditions: cited from earlier work
[2] = test system: K562 chronic myelogenous leukemia cells; conditions: cited from earlier work
[3] = test system: SKOV-3 human ovarian cancer cells; assay: IC50 determination, MTT assay, SKOV-3 cells; format: cell-based; conditions: SK-OV-3, SKOV3, 24 h treatment + 48 h post-treatment incubation
Procedure: (§1) Cytotoxicity of Cim-F-alb was tested with B16F10 cells and SKOV-3 human ovarian cancer cells (ATCC, Manassas, Va., USA) over a range of PTX concentrations. SKOV-3 cells were grown in RPMI-1640 medium containing 10% FBS and penicillin (100 IU/mL) and streptomycin (100 μg/mL). Both cells were treated with Cim-F-alb for 24 h, followed by post-treatment incubation in NC-free medium for 12-48 h. Free PTX and Abraxane were tested in the same manner for comparison. Cim-F-alb and Abraxane were directly reconstituted in PBS and serially diluted by a factor of 10. Free PTX solution was prepared as PTX stock solution in 50% DMSO at a concentration of 1 mg/mL and diluted in PBS. The maximum possible concentration of DMSO in the medium was 5% v/v. SKOV-3 cells and B16F10 cells grown in RPMI-1640 were tested with the MTT assay, and B16F10 cells grown in DMEM were tested with PI staining and flow cytometry. IC50 was calculated with GraphPad Prism 6 (La Jolla, Calif., USA).

B16F10 cells [4] = assay: IC50 determination, PI staining and flow cytometry, B16F10 cells; format: cell-based; conditions: Mus musculus, B16-F10, 24 h treatment, PI staining + flow cytometry
Procedure: B16F10 cells grown in DMEM medium was tested with propidium iodide (PI) staining due to the production of melanin [32], which interferes with colorimetric assay. B16F10 cells were seeded in a 6 well plate at a density of 100,000 cells per well. After overnight incubation, the medium was replaced with fresh medium, to which 100 μL of PNC-alb, Cim-C-alb, or Cim-F-alb in PBS was added to provide the final concentration eq. to 30 μg/mL PTX. After incubation with NC for 3 h, cells were washed with PBS two times to remove NC, followed by additional incubation for 21 h in NC-free medium. Then, B16F10 cells were trypsinized and stained with PI (1 μg/mL) for 15 min in dark at room temperature. The cells were centrifuged at 300 g for 5 minutes to remove extra PI dye and reconstituted in PBS for flow cytometry (Accuri C6, BD Biosciences, San Jose, Calif.). At least 15,000 gated events were acquired, and FL-2 channel was monitored to determine the population of PI-stained cells.
Cytotoxicity of Cim-F-alb was tested with B16F10 cells and SKOV-3 human ovarian cancer cells (ATCC, Manassas, Va., USA) over a range of PTX concentrations. SKOV-3 cells were grown in RPMI-1640 medium containing 10% FBS and penicillin (100 IU/mL) and streptomycin (100 μg/mL). […] IC50 was calculated with GraphPad Prism 6 (La Jolla, Calif., USA).

B16F10 cells [5] = assay: IC50 determination, MTT assay, B16F10 cells; format: cell-based; conditions: Mus musculus
Procedure: Cytotoxicity of NC was tested with B16F10 cells. B16F10 cells were grown in RPMI-1640 or DMEM medium supplemented with 10% FBS, penicillin (100 IU/mL) and streptomycin (100 μg/mL). B16F10 cells grown in RPMI-1640 were seeded in a 96 well plate at a density of 10,000 cells per well. After overnight incubation, the culture medium was replaced with a fresh cell culture medium, to which PNC-alb, Cim-C-alb, or Cim-F-alb were added to provide the final concentration eq. to 30 μg/mL PTX. After 3 h incubation, cells were washed with PBS twice to remove NC, followed by additional incubation for 21 h in NC-free medium. The cell viability was determined by the MTT (3-(4,5-dimethylthiazol-2-yl)-2,5-diphenyltetrazolium bromide) assay. Cells were treated with 75 μg of MTT and incubated for 3.5 h. The formazan crystals were dissolved in stop/solubilization solution (50% DMF, 20% SDS, pH 5) and quantified with a SpectraMax M3 microplate reader (Molecular Devices, CA, USA) at the wavelength of 562 nm.
as §1

[6] = As-received PTX dissolved in FBS-containing media after 6 h; format: physicochemical; conditions: 6 h at 37° C.
Procedure: FIG. 23. […] One milligram of PTX was added to 1 mL of each medium and incubated for 6 h with agitation. A supernatant was separated from the undissolved PTX by centrifugation at 135,700 rcf for 10 min, extracted with 3 mL of ethyl acetate, which was evaporated and reconstituted in 50% ACN for HPLC analysis. […] The FBS suspension was sampled at 6 h to quantify dissolved PTX by that time. A supernatant was separated from the sample by 10 min centrifugation at 135,700 rcf and analyzed in the same way. The incubation time was limited to 6 h due to the instability of PTX in serum. Since the extraction method cannot differentiate protein-bound PTX from free PTX, the measured values represent the sum of serum protein-bound and free PTX. • [1] G. Bajaj, M. R. Kim, S. I. Mohammed, Y. Yeo, Hyaluronic acid-based hydrogel for regional delivery of paclitaxel to intraperitoneal tumors, J. Control. Release 158 (2012) 386-392. • [2] I. Ringel, S. B. Horwitz, Taxol is converted to 7-epitaxol, a biologically active isomer, in cell culture medium, J. Pharmacol. Exp. Ther. 242 (1987) 692-698.

In the case of CCCCCCCCCCCCCCCC[N+](C)(C)C.[Br-] [CTAB, hexadecyltrimethylammonium bromide], the cytotoxicity (HT-29 colon cancer cells) is listed as “cytotoxic”, the cytotoxicity [1] is listed as “cytotoxic” and the cytotoxicity [2] is listed as “cytotoxic”.
Compound CC(=O)O[C@H]1C(=O)[C@@]2(C)[C@H]([C@H](OC(=O)c3ccccc3)[C@]3(O)C[C@H](OC(=O)[C@H](O)[C@@H](NC(=O)c4ccccc4)c4ccccc4)C(C)=C1C3(C)C)[C@]1(OC(C)=O)CO[C@@H]1C[C@@H]2O [Free PTX, paclitaxel] has a pIC50 [3] of 7.47, a pIC50 (B16F10 cells [4]) of 6.37 and a pIC50 (B16F10 cells [5]; B16-F10, 24 h, B16F10, 24 h treatment + 24 h post-treatment incubation) of 6.67. For the same compound, the pIC50 (B16F10 cells [5]; B16-F10, B16F10, 24 h treatment + 12 h post-treatment incubation) was 7.04, the pIC50 (B16F10 cells [5]; B16-F10, B16F10, 24 h treatment + 48 h post-treatment incubation) was 6.12 and the “PTX dissolved in 10% FBS” value [6] was 9.6 ± 2.6 µg/mL. The “PTX dissolved in 50% FBS” value [6] was 47.5 ± 11.4 µg/mL and the “PTX dissolved in undiluted FBS” value [6] was 71.9 ± 8.2 µg/mL.

From patent US10398651B2, “Carrier-free nanoparticles” (priority 2016, dated 2019)
